Columns and labels:
AXL = target: T1, AXL (Homo sapiens, UniProt P30530); assay: Radioactive protein kinase assay (33PanQinase Activity Assay), AXL; settings: ATP 0.3 μM (Km), substrate Poly(Glu, Tyr) 4:1, 30° C., 60 minutes; read-out: Biochemical IC50 (nM) AXL
T1 construct: purchased ProQinase GmbH
T1 sequence (P30530 26-894): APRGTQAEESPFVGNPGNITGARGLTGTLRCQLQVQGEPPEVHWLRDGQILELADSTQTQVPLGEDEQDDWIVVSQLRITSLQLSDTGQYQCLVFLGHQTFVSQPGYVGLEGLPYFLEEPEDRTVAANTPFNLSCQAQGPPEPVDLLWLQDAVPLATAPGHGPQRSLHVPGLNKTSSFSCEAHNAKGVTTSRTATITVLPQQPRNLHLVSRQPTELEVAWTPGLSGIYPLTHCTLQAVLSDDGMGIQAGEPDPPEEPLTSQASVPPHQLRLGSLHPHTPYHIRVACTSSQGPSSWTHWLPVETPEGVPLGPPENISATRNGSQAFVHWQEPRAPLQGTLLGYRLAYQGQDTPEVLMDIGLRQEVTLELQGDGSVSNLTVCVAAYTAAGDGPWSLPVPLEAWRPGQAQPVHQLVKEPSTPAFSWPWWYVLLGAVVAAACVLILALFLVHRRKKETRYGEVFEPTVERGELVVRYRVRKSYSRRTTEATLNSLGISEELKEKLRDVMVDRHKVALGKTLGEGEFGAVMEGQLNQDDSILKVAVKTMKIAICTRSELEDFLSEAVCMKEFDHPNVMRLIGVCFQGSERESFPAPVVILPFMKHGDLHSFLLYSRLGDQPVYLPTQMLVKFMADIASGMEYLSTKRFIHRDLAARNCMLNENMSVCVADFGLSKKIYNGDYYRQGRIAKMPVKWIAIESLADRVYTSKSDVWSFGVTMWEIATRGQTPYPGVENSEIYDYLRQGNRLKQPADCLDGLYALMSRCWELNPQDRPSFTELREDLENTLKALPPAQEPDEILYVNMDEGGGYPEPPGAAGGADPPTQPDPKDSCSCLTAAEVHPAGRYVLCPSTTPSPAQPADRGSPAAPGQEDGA
Experimental: (§1) Biochemical inhibitory activity against AXL and VEGFR2 kinases: the biochemical IC50 values of the compound according to the present application for inhibiting AXL and VEGFR2 kinases were measured by ProQinase GmbH Company (Breisacher Str. 117, D-79106 Freiburg, Germany, www.proqinase.com). The specific steps are described as follows:
(§2) Firstly, the compound according to the present application was dissolved in dimethyl sulfoxide (DMSO) to prepare a stock solution of 1×10^−3 M. 10 different concentrations (from […] to 3×10^−10 M) were prepared by the serial semi-logarithmic dilution.
(§3) The biochemical activities of AXL and VEGFR2 were determined by the radioactive protein kinase assay (33PanQinase® Activity Assay). The assay was performed using a FlashPlates™ 96-well plate manufactured by Perkin Elmer (Boston, Mass., USA) with a reaction volume of 50 μL. The reaction mixture was added by a dropper in the following four steps:
(§4) (1) 20 μL of buffer solution (standard buffer);
(§5) (2) 5 μL of an aqueous solution of ATP;
(§6) (3) 5 μL of the compound (10% DMSO solution);
(§7) (4) 10 μL of a substrate/10 μL of a solution of the kinase.
(§8) The solution to be measured contains HEPES-NaOH (70 mM, pH=7.5), MgCl2 (3 mM), MnCl2 (3 mM), Na-orthovanadate (3 μM), DTT (1.2 mM), PEG20000 (50 μg/mL), ATP (in a concentration that is same as Km of the kinase and varies depending on different kinases), [γ-^33P]-ATP (about 4×10^5 cpm/well), kinase and substrate.
(§9) The reaction was carried out at 30° C. for 60 minutes, and 50 μL of 2% (v/v) phosphoric acid was added to terminate the reaction. The reaction mixture in each well was aspirated and washed twice with 200 μL of 0.9% (w/v) NaCl solution. The amount of the incorporation of ^33P was determined by using a microplate scintillation counter.

VEGFR2 = target: T2, VEGFR2 (Homo sapiens, UniProt P35968); assay: Radioactive protein kinase assay (33PanQinase Activity Assay), VEGFR2; settings: ATP 1.0 μM (Km), substrate Poly(Glu, Tyr) 4:1, 30° C., 60 minutes; read-out: Biochemical IC50 (nM) VEGFR2
T2 construct: purchased ProQinase GmbH
Experimental: as §1, §2, §3, §4, §5, §6, §7, §8, §9

T2 sequence (P35968 20-1356): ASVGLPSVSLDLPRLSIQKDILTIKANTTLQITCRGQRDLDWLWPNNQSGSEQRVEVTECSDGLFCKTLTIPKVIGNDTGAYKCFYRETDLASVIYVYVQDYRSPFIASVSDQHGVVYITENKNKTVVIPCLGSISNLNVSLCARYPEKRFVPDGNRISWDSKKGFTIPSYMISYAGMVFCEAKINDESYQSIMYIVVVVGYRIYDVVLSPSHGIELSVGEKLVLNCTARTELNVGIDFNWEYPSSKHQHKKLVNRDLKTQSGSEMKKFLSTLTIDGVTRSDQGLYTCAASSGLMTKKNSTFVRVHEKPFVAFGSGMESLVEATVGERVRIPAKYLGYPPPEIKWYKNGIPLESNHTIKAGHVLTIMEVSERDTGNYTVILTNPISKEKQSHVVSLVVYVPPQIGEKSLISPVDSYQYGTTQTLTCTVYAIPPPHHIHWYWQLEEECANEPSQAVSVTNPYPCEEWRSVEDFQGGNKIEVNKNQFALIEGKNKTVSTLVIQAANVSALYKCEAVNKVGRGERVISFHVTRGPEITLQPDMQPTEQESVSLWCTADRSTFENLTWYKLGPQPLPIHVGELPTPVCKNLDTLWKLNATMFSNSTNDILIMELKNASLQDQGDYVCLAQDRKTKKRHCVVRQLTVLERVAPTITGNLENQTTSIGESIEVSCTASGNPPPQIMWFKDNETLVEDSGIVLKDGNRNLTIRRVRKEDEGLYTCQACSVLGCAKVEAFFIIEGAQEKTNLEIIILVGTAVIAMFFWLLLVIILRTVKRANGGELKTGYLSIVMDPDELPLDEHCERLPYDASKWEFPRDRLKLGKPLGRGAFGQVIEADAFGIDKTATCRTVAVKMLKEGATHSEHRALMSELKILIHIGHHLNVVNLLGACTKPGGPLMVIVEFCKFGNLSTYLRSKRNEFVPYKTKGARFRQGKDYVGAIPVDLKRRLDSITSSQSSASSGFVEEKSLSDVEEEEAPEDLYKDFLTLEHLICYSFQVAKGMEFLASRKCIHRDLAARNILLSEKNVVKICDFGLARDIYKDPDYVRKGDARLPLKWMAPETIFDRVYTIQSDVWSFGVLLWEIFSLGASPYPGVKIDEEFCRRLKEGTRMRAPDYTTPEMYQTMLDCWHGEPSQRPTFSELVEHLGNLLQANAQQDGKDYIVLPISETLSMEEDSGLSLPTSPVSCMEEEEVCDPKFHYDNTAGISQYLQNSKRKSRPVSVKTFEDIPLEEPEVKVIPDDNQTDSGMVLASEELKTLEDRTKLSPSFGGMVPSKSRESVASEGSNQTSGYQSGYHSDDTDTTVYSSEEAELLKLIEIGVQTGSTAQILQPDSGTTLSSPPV

Compound | IC50 (AXL) | IC50 (VEGFR2)
COc1cc2c(Oc3ccc(NC(=O)C4(C(=O)Nc5ccc(F)cc5)CC4)cc3F)ccnc2cc1OCCCCCC(=O)O [Example 9, 6-[[4-[2-fluoro-4-[[1-[(4-fluorophenyl)carbamoyl]cyclopropanecarbonyl]amino]phenoxy]-6-methoxy-7-quinolyl]oxy]caproic acid] | 10.2 nM | 16 nM
COc1cc2c(Oc3ccc(NC(=O)C4(C(=O)Nc5ccc(F)cc5)CC4)cc3F)ccnc2cc1OCCCCCC(=O)O [Example 13, 1,3-dihydroxy-2-(hydroxymethyl)propan-2-ammonium 6-[[4-[2-fluoro-4-[[1-[(4-fluorophenyl)carbamoyl]cyclopropanecarbonyl]amino]phenoxy]-6-methoxy-7-quinolyl]oxy]caproate] | 8.63 nM | 12.6 nM
COc1cc2c(Oc3ccc(NC(=O)C4(C(=O)Nc5ccc(F)cc5)CC4)cc3F)ccnc2cc1OCCCC(=O)O [Example 3, 4-[[4-[2-fluoro-4-[[1-[(4-fluorophenyl)carbamoyl]cyclopropanecarbonyl]amino]phenoxy]-6-methoxy-7-quinolyl]oxy]butyric acid] | 9.86 nM | 6.56 nM
COc1cc2c(Oc3ccc(NC(=O)C4(C(=O)Nc5ccc(F)cc5)CC4)cc3F)ccnc2cc1OCC(=O)O [Example 1, 2-[[4-[2-fluoro-4-[[1-[(4-fluorophenyl)carbamoyl]cyclopropanecarbonyl]amino]phenoxy]-6-methoxy-7-quinolyl]oxy]acetic acid] | 55.3 nM | 24.5 nM
COc1cc2c(Oc3ccc(NC(=O)C4(C(=O)Nc5ccc(F)cc5)CC4)cc3F)ccnc2cc1OCCCC(=O)O [Example 4, Sodium 4-[[4-[2-fluoro-4-[[1-[(4-fluorophenyl)carbamoyl]cyclopropanecarbonyl]amino]phenoxy]-6-methoxy-7-quinolyl]oxy]butyrate] | 9.05 nM | 8.03 nM
COc1cc2c(Oc3ccc(NC(=O)C4(C(=O)Nc5cccc(Cl)c5)CC4)cc3F)ccnc2cc1OCCCCCCC(=O)O [Example 16, Calcium 7-[[4-[2-fluoro-4-[[1-[(3-chlorophenyl)carbamoyl]cyclopropanecarbonyl]amino]phenoxy]-6-methoxy-7-quinolyl]oxy]heptanoate] | 19.8 nM | 18.9 nM
COc1cc2c(Oc3ccc(NC(=O)C4(C(=O)Nc5ccc(F)cc5)CC4)cc3F)ccnc2cc1OCCCCCCC(=O)O [Example 14, 7-[[4-[2-fluoro-4-[[1-[(4-fluorophenyl)carbamoyl]cyclopropanecarbonyl]amino]phenoxy]-6-methoxy-7-quinolyl]oxy]heptanoic acid] | 13.7 nM | 13.6 nM
CCOc1cc2c(Oc3ccc(NC(=O)C4(C(=O)Nc5ccc(F)cc5)CC4)cc3F)ccnc2cc1OCC(=O)O [Example 18, Potassium 2-[[4-[2-fluoro-4-[[1-[(4-fluorophenyl)carbamoyl]cyclopropanecarbonyl]amino]phenoxy]-6-ethoxy-7-quinolyl]oxy]acetate] | 10.7 nM | 9.86 nM

Second part, the molecule after the results:

IC50 (AXL) | IC50 (VEGFR2) | Compound
11.9 nM | 13.9 nM | COc1cc2c(Oc3ccc(NC(=O)C4(C(=O)Nc5ccc(F)cc5)CC4)cc3F)ccnc2cc1OCCCCCC(=O)O [Example 10, Sodium 6-[[4-[2-fluoro-4-[[1-[(4-fluorophenyl)carbamoyl]cyclopropanecarbonyl]amino]phenoxy]-6-methoxy-7-quinolyl]oxy]caproate]
6.08 nM | 8.66 nM | COc1cc2c(Oc3ccc(NC(=O)C4(C(=O)Nc5ccc(F)cc5)CC4)cc3F)ccnc2cc1OCCCCC(=O)O [Example 8, Triethylammonium 5-[[4-[2-fluoro-4-[[1-[(4-fluorophenyl)carbamoyl]cyclopropanecarbonyl]amino]phenoxy]-6-methoxy-7-quinolyl]oxy]valerate]
10.7 nM | 10.4 nM | COc1cc2c(Oc3ccc(NC(=O)C4(C(=O)Nc5ccc(F)cc5)CC4)cc3F)ccnc2cc1OCCCCCC(=O)O [Example 12, Calcium 6-[[4-[2-fluoro-4-[[1-[(4-fluorophenyl)carbamoyl]cyclopropanecarbonyl]amino]phenoxy]-6-methoxy-7-quinolyl]oxy]caproate (1:1)]
7.49 nM | 6.6 nM | COc1cc2c(Oc3ccc(NC(=O)C4(C(=O)Nc5ccc(F)cc5)CC4)cc3F)ccnc2cc1OCCCCC(=O)O [Example 6, 5-[[4-[2-fluoro-4-[[1-[(4-fluorophenyl)carbamoyl]cyclopropanecarbonyl]amino]phenoxy]-6-methoxy-7-quinolyl]oxy]valeric acid]
14.9 nM | 13.6 nM | COc1cc2c(Oc3ccc(NC(=O)C4(C(=O)Nc5ccc(F)cc5)CC4)cc3F)ccnc2cc1OCCCCCC(=O)O [Example 11, Potassium 6-[[4-[2-fluoro-4-[[1-[(4-fluorophenyl)carbamoyl]cyclopropanecarbonyl]amino]phenoxy]-6-methoxy-7-quinolyl]oxy]caproate]

— patent US10723701B2, “Quinolyl-substituted carboxylic acid compound or pharmaceutically acceptable salt thereof, pharmaceutical composition of the same, and use of the same” (BEIJING KONRUNS PHARMACEUTICAL CO., LTD., priority 2016, dated 2020)
